According to patent publication US11448563B2, “Force measurement method, force measurement device, force measurement system, force measurement program, and recording medium” (Tohoku University, priority 2017, dated 2022):

Tested on: motor proteins
Test: Frequency distribution of the fluctuation value χ of cargo transport, measured with the force measurement device after adding Ciliobrevin to cells
Format: cell-based
Settings: melanocytes; for number of clusters into which the frequency distribution of the fluctuation value χ is classified: four clusters without Ciliobrevin
Protocol: The dish after stain was placed on a heating plate (CU-201, Live Cell Instrument), and the stained melanin vesicles in melanocytes were observed under a dark-field microscope (IX71, Olympus) while the temperature was maintained at 37° C. A video was captured using an EMCCD camera (LucaS (Andor)) with a 100× objective lens (UPlanFL 100x/1.3, Plympus) at 98 frames per second. Time course data of the position of the center of gravity of melanin vesicles was calculated from the video using ImageJ (Rasband, 1997).
FIG. 15A, FIG. 15B and FIG. 15C are diagrams showing specific results showing that the fact that the frequency distribution of the fluctuation value χ changes according to addition of Ciliobrevin which is a reagent that inhibits a function of motor proteins into melanocytes is clear from measurement of χ using the force measurement device 1 of the embodiment.

Ciliobrevin
change in the number of clusters of the fluctuation value χ with the amount of Ciliobrevin added (comparison of 0, 20 and 40 μM (FIG. 15A-15C)): number of clusters decreases as the amount of Ciliobrevin added increases
number of clusters into which the frequency distribution of the fluctuation value χ is classified (concentration of Ciliobrevin in the cell culture medium 20 μM (FIG. 15B)): two clusters
number of clusters into which the frequency distribution of the fluctuation value χ is classified (concentration of Ciliobrevin in the cell culture medium 40 μM (FIG. 15C)): one cluster
